Source: patent US11331290B2, “Niclosamide for the treatment of cancer metastasis” (Max-Delbrück-Centrum für Molekulare Medizin in der …, priority 2011, dated 2022)

Tested on: S100A4 mRNA
Test: S100A4 mRNA expression by qRT-PCR in colon cancer cells
Format: cell-based, human
Procedure: Total RNA was isolated from 4×10^5 cells plated in a 6-well-plates 24 hour before cells were lyzed with Trizol Reagent (Invitrogen). RNA was extracted with Trizol RNA extraction reagent (Invitrogen) according to the manufacturer's instructions. Quantification of the RNA concentration was performed with Nanodrop (Peqlab) and 50 ng total RNA was reverse transcribed with random hexamers in 10 mM MgCl2; 1× RT-buffer, 250 μM pooled dNTPs, 1 U per μL RNAse inhibitor and 2.5 U per μL MuLV reverse transcriptase (all Applied Biosystems). Reaction occurred at 42° C. for 15 minutes, 99° C. for 5 minutes and subsequent cooling at 5° C. for 5 minutes. The cDNA product was amplified in a total volume of 10 μL in 96-well-plates in the LightCycler 480 (Roche) using the following conditions: 95° C., 10 minutes, followed by 45 cycles of 95° C. for 10 seconds, 61° C. for 30 seconds and 72° C. for 4 seconds. For S100A4 cDNA quantification the following primer and probes were used: forward primer 5′-CTCAGCGCTTCTTCTTTC-3′, reverse primer 5′-GGGTCAGCAGCTCCTTTA-3′, fluorescein isothiocyanate probe 5′-[…]-3′, LCRed640-probe 5′-[…]-3′. For cDNA quantification of the housekeeping gene glucose-6-phosphate dehydrogenase (G6PD) the hG6PDH Roche Kit (Roche Diagnostics, Mannheim, Germany) was used according to manufacturers instructions. Data analysis was performed with LightCycler® 480 Software release 1.5.0 SP3. For each qRT-PCR reaction a mean of the duplicate was calculated. Each mean value of the expressed gene was normalized to the respective mean amount of the G6PD cDNA.
(A) Determination of the cytotoxicity of niclosamide on HCT116 cells. Cells were treated with increasing concentrations of niclosamide for 24 hours and cell viability was measured. (B) Effect of increasing concentrations of niclosamide on S100A4 expression. HCT116 cells were treated with increasing concentrations of niclosamide for 24 hours. S100A4 expression was determined by quantitative reverse-transcription-polymerase chain reaction (qRT-PCR) and immunoblot. (C) Time-dependency of niclosamide effect on S100A4 expression. HCT116 cells were treated with a single dose of 1 μM niclosamide for 24 hours and S100A4 expression was analyzed by qRT-PCR and immunoblot at indicated time points. Black bar indicates the chosen treatment conditions for further experiments. (D) Effect of daily doses of niclosamide on S100A4 expression. HCT116 cells were treated daily with 1 μM niclosamide and S100A4 expression was analyzed by qRT-PCR and immunoblot. Data is given as mean±SD (n>2). Differences in treated groups were compared with the control group by two-sided one-way analysis of variances and Bonferroni post hoc multiple comparison test.
(E) Effect of niclosamide in HCT116-vector and HCT116-S100A4 cells. HCT116-vector and HCT116-S100A4 cells were treated with 1 μM niclosamide for 24 hours and S100A4 expression was analyzed by qRT-PCR and immunoblot. Data is given as mean±SD (n>2). Comparison of niclosamide vs. solvent-treated cells was analyzed with Student's t test.
(A) S100A4 expression under niclosamide treatment. Cells were treated with 1 μM niclosamide for 24 hours. S100A4 expression was analyzed with qRT-PCR and immunoblot. (B) Cell migration under niclosamide treatment. Migration rates of cells treated with 1 μM niclosamide for 24 hours were determined in a Boyden chamber assay values were normalized to solvent-treated SW620 cells. (C) Cell invasion under niclosamide treatment. Cells were seeded onto Matrigel covered transwells and treated with 1 μM niclosamide for 24 hours. Invaded cells in the lower chamber were counted and normalized to solvent-treated SW620 cells. Differences in solvent vs. niclosamide-treated cells were analyzed by Student's t test. Data represent mean±SE of at least two independent experiments each performed in triplicate. (D) Directed migration under niclosamide treatment. Wounds of 300 μM width were set in a 60% confluent monolayer of cells on day 1. […]

O=C(Nc1ccc([N+](=O)[O-])cc1Cl)c1cc(Cl)ccc1O [niclosamide, 2′,5-dichloro-4′-nitrosalicylanilide]
S100A4 mRNA (DLD-1, 1 μM, 24 h, mRNA barely detectable): remained unchanged | S100A4 mRNA expression, mean difference control vs niclosamide (HAB-68mut, 1 μM, 24 h): 0.55 | S100A4 mRNA expression, mean (relative to HCT116 control) (HAB-68mut, 1 μM, 24 h, control 1.17): 0.62 | S100A4 mRNA expression, mean (relative to HCT116 control) (HAB-92 wt, 1 μM, 24 h, control 0.03, statistically not significant): 0.01 | S100A4 mRNA expression, mean difference control vs niclosamide (HAB-92 wt, 1 μM, 24 h, statistically not significant): 0.02 | S100A4 mRNA, mean % (HCT116, 1 μM daily for 3 days, 24 hours post-treatment, control 101.9%): 58.0% | S100A4 mRNA, mean % (HCT116, 1 μM daily for 3 days, 48 hours post-treatment, control 98.1%): 44.4% | S100A4 mRNA, mean % (HCT116, 1 μM daily for 3 days, 72 hours post-treatment, control 100.0%): 57.9% | S100A4 mRNA, mean % of solvent-treated control (HCT116, 1 μM daily, 24 hours): 46.0% | S100A4 mRNA, mean % of solvent-treated control (HCT116, 1 μM daily, 48 hours): 44.5% | S100A4 mRNA, mean % of solvent-treated control (HCT116, 1 μM daily, 72 hours): 59.5% | S100A4 mRNA expression, mean difference control vs niclosamide (HCT116, 1 μM, 24 h (relative scale)): 0.54 | S100A4 mRNA expression, mean (relative to HCT116 control) (HCT116, 1 μM, 24 h, control 1.00): 0.46 | S100A4 mRNA, mean % of solvent-treated control (HCT116, 1 μM, single dose, 18 hours): 47.5% | S100A4 mRNA, mean % of solvent-treated control (HCT116, 1 μM, single dose, 24 h): 47.4% | S100A4 mRNA and protein levels (HCT116, 1 μM, single dose, after 30-48 hours): returned to the control level | S100A4 mRNA, mean % of solvent-treated control (HCT116, 1.5 μM, 24 h): 39.2% | S100A4 mRNA, mean % of solvent-treated control (HCT116, 2 μM, 24 h): 39.1% | S100A4 mRNA, mean % of solvent-treated control (HCT116, 2.5 μM, 24 h): 36.7% | S100A4 mRNA, mean difference control vs niclosamide (HCT116, 24 hours post-treatment): 43.9% | S100A4 mRNA, mean difference control vs niclosamide (HCT116, 48 hours post-treatment): 53.7% | S100A4 mRNA, mean difference control vs niclosamide (HCT116, 72 hours post-treatment): 42.1% | change in S100A4 expression (HCT116, concentrations below 1 μM, 24 h): No change | S100A4 mRNA, mean difference control vs niclosamide (HCT116-S100A4, 1 μM, 24 h, not statistically significant): 104.7% | S100A4 mRNA, mean % (HCT116-S100A4, 1 μM, 24 h, solvent control 717.0%, not statistically significant): 612.3% | S100A4 mRNA, mean % of solvent-treated control (HCT116-vector, 1 μM, 24 h): 57.8% | S100A4 mRNA, mean difference control vs niclosamide (HCT116-vector, 1 μM, 24 h): 42.0% | S100A4 mRNA, mean difference control vs niclosamide (LS174T, 1 μM, 24 h): 51.9% | S100A4 mRNA, mean % (LS174T, 1 μM, 24 h, solvent control 65.5%): 13.5% | S100A4 mRNA, mean difference control vs niclosamide (SW480, 1 μM, 24 h): 35.0% | S100A4 mRNA, mean % (SW480, 1 μM, 24 h, solvent control 41.0%): 6.0% | S100A4 mRNA, mean difference control vs niclosamide (SW620, 1 μM, 24 h): 68.8% | S100A4 mRNA, mean % (SW620, 1 μM, 24 h, solvent control 100.0%): 31.2%
